The results in this text go back to patent US9416111B2, “Substituted diazine and triazine spleen tyrosine kinease (Syk) inhibitors” (Merck Sharp & Dohme Corp., priority 2012, dated 2016).

In the first test the target is T1, recombinant human GST-SYK (Homo sapiens, UniProt P43405).
T1 construct: purchased Carna Biosciences 08-176
Put plainly: Homogeneous Time-Resolved Fluorescence (HTRF) assay for the recombinant human Syk enzyme. Type of test: biochemical. Particulars: GST-hSYK 5 pM, ATP 25 μM, IC50 rated in classes, read-out: rhSYK Activity. In outline:
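GST-hSYK (5 pM) was preincubated 10 min with inhibitor in 15 mM Tris-HCl pH 7.5, 0.01% tween 20, 2 mM DTT; reaction started with 250 nM biotinylated peptide, 5 mM Mg and 25 μM ATP, run 45 min at room temperature. Phosphopeptide detected by HTRF (Eu-anti-phosphotyrosine/SA-APC) after EDTA quench.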
A general note: In TR-FRET formats the signal depends on donor and acceptor labels being close together.
As to `CNC(=O)CCNc1ncc(-c2cc(C)cc(Nc3nccc(C(F)(F)F)n3)c2)cn1` [Example 2.69, N-methyl-N~3~-[5-(3-methyl-5-{[4-(trifluoromethyl)pyrimidin-2-yl]amino}phenyl)pyrimidin-2-yl]-beta-alaninamide], the IC50 was under 0.1 µM.

In the case of `Cc1cc(Nc2nccc(C(F)(F)F)n2)cc(-c2cnc(NCc3cnn(C)c3)nc2)c1` [Example 2.17, N-[3-methyl-5-(2-{[(1-methyl-1H-pyrazol-4-yl)methyl]amino}pyrimidin-5-yl)phenyl]-4-(trifluoromethyl)pyrimidin-2-amine], the IC50 was under 0.1 µM.

Consider `Cc1cc(Nc2nccc(C(F)(F)F)n2)cc(-c2cnc(NC(C)(CO)CO)nc2)c1` [Example 2.1, 2-methyl-2-{[5-(3-methyl-5-{[4-(trifluoromethyl)pyrimidin-2-yl]amino}phenyl)pyrimidin-2-yl]amino}propane-1,3-diol], for which the IC50 was under 0.1 µM.

`O=C(O)CCc1ccc(-c2cccc(Nc3nccc(C(F)(F)F)n3)c2)nn1` [Example 3.25, 3-[6-(3-{[4-(trifluoromethyl)pyrimidin-2-yl]amino}phenyl)pyridazin-3-yl]propanoic acid]: the IC50 was in the range of 0.1 to 1 µM.

As for `Cc1cc(Nc2nccc(C(F)(F)F)n2)cc(-c2cnc(NCCS(C)(=O)=O)nc2)c1` [Example 2.48, N-[3-methyl-5-(2-{[2-(methylsulfonyl)ethyl]amino}pyrimidin-5-yl)phenyl]-4-(trifluoromethyl)pyrimidin-2-amine], the IC50 is under 0.1 µM.

`COc1ccnc(Nc2cc(C)cc(-c3cncc(CCC(=O)O)n3)c2)n1` [Example 3.16, 3-(6-{3-[(4-methoxypyrimidin-2-yl)amino]-5-methylphenyl}pyrazin-2-yl)propanoic acid]: the IC50 is under 0.1 µM.

Consider `Cc1cc(Nc2nccc(C(F)(F)F)n2)cc(-c2cnc(N3CCCC3C(N)=O)nc2)c1` (racemic) [Example 2.74, 1-[5-(3-methyl-5-{[4-(trifluoromethyl)pyrimidin-2-yl]amino}phenyl)pyrimidin-2-yl]prolinamide], for which the IC50 was under 0.1 µM.

Regarding `CCOC(=O)CCc1cncc(-c2cccc(Nc3nccc(C(F)(F)F)n3)c2)n1` [Example 3.13, ethyl 3-[6-(3-{[4-(trifluoromethyl)pyrimidin-2-yl]amino}phenyl)pyrazin-2-yl]propanoate], the IC50 was 1 to 10 µM.

On to `Cc1cc(Nc2nccc(C(F)(F)F)n2)cc(-c2cnc(NCC(=O)N(C)C)nc2)c1` [Example 2.64, N,N-dimethyl-N~2~-[5-(3-methyl-5-{[4-(trifluoromethyl)pyrimidin-2-yl]amino}phenyl)pyrimidin-2-yl]glycinamide], for which the IC50 was under 0.1 µM.

With `CCC[C@H](Nc1ncc(-c2cc(C)cc(Nc3nccc(C(F)(F)F)n3)c2)cn1)C(=O)O` [Example 2.14, N-[5-(3-methyl-5-{[4-(trifluoromethyl)pyrimidin-2-yl]amino}phenyl)pyrimidin-2-yl]-L-norvaline], the IC50 was under 0.1 µM.

On to `Cc1cc(Nc2nccc(C(F)(F)F)n2)cc(-c2cnc(N3CCN(C)C(=O)C3C)nc2)c1` (stereo not shown) [Example 2.67, 1,3-dimethyl-4-[5-(3-methyl-5-{[4-(trifluoromethyl)pyrimidin-2-yl]amino}phenyl)pyrimidin-2-yl]piperazin-2-one], for which the IC50 is under 0.1 µM.

Consider `Cc1cc(Nc2nccc(C(F)(F)F)n2)cc(-c2cnc(OC3CCC(C(=O)O)CC3)nc2)c1` (stereo not shown) [Example 3.58, 4-{[5-(3-methyl-5-{[4-(trifluoromethyl)pyrimidin-2-yl]amino}phenyl)pyrimidin-2-yl]oxy}cyclohexanecarboxylic acid], for which the IC50 is under 0.1 µM.

Consider `CCOC(=O)CCc1ncc(-c2cc(C)cc(Nc3nccc(C)n3)c2)cn1` [Example 1.7, ethyl 3-(5-{3-methyl-5-[(4-methylpyrimidin-2-yl)amino]phenyl}pyrimidin-2-yl)propanoate], for which the IC50 fell in the range of 0.1 to 1 µM.

`CC(=O)NCCCNc1ncc(-c2cc(C)cc(Nc3nccc(C(F)(F)F)n3)c2)cn1` [Example 2.71, N-(3-{[5-(3-methyl-5-{[4-(trifluoromethyl)pyrimidin-2-yl]amino}phenyl)pyrimidin-2-yl]amino}propyl)acetamide]: the IC50 is under 0.1 µM.

Regarding `Cc1cc(Nc2nccc(C(F)(F)F)n2)cc(-c2cnc(NCCCO)nc2)c1` [Example 2.34, 3-{[5-(3-methyl-5-{[4-(trifluoromethyl)pyrimidin-2-yl]amino}phenyl)pyrimidin-2-yl]amino}propan-1-ol], the IC50 was under 0.1 µM.

`Cc1cc(Nc2nccc(C(F)F)n2)cc(-c2cnc([C@H](C)[C@H]3CC[C@H](C(=O)O)[C@H](C)C3)nc2)c1` (single isomer, unassigned) [Example 7.5]: the IC50 is under 0.1 µM.

Consider `Cc1cc(Nc2nccc(C3CC3)n2)cc(-c2cncc(CCC(=O)O)n2)c1` [Example 3.22, 3-(6-{3-[(4-cyclopropylpyrimidin-2-yl)amino]-5-methylphenyl}pyrazin-2-yl)propanoic acid], for which the IC50 was under 0.1 µM.

For `Cc1cc(Nc2nccc(C(F)(F)F)n2)cc(-c2cnc(NC(CO)C(=O)O)nc2)c1` (racemic) [Example 2.41, N-[5-(3-methyl-5-{[4-(trifluoromethyl)pyrimidin-2-yl]amino}phenyl)pyrimidin-2-yl]serine], the IC50 is under 0.1 µM.

In the case of `Cc1cc(Nc2nccc(C3CC3)n2)cc(-c2cc(CCC(=O)O)ncn2)c1` [Example 3.54, 3-(6-{3-[(4-cyclopropylpyrimidin-2-yl)amino]-5-methylphenyl}pyrimidin-4-yl)propanoic acid], the IC50 is 0.1 to 1 µM.

For the compound `Cc1cc(Nc2nccc(C(F)(F)F)n2)cc(-c2cnc(N(C)[C@@H](C)C(=O)O)nc2)c1` [Example 2.9, N-methyl-N-[5-(3-methyl-5-{[4-(trifluoromethyl)pyrimidin-2-yl]amino}phenyl)pyrimidin-2-yl]-L-alanine], the IC50 was under 0.1 µM.

On to `Cc1cc(Nc2nccc(C(F)(F)F)n2)cc(-c2cnc(NCCC(N)=O)nc2)c1` [Example 2.39, N~3~-[5-(3-methyl-5-{[4-(trifluoromethyl)pyrimidin-2-yl]amino}phenyl)pyrimidin-2-yl]-beta-alaninamide], for which the IC50 was under 0.1 µM.

Regarding `Cc1cc(Nc2nccc(C(F)(F)F)n2)cc(-c2cnc(NCC(O)CO)nc2)c1` (stereo not shown) [Example 2.13, 3-{[5-(3-methyl-5-{[4-(trifluoromethyl)pyrimidin-2-yl]amino}phenyl)pyrimidin-2-yl]amino}propane-1,2-diol], the IC50 is under 0.1 µM.

Turning to `Cc1cc(Nc2nccc(C(F)(F)F)n2)cc(-c2cnc(NC3CCOC3)nc2)c1` (stereo not shown) [Example 2.18, N-{3-methyl-5-[2-(tetrahydrofuran-3-ylamino)pyrimidin-5-yl]phenyl}-4-(trifluoromethyl)pyrimidin-2-amine], the IC50 was under 0.1 µM.

For `CCOC(=O)CCc1cncc(-c2cc(C)cc(Nc3nccc(C4CC4)n3)c2)n1` [Example 3.21, ethyl 3-(6-{3-[(4-cyclopropylpyrimidin-2-yl)amino]-5-methylphenyl}pyrazin-2-yl)propanoate], the IC50 lay in the range of 0.1 to 1 µM.

As to `Cc1cc(Nc2nccc(C(F)(F)F)n2)cc(-c2cnc(N3CC(O)C3)nc2)c1` [Example 2.50, 1-[5-(3-methyl-5-{[4-(trifluoromethyl)pyrimidin-2-yl]amino}phenyl)pyrimidin-2-yl]azetidin-3-ol], the IC50 is under 0.1 µM.

As to `Cc1cc(Nc2nccc(C(F)F)n2)cc(-c2cnc([C@H](C)[C@H]3CC[C@H](C(=O)O)[C@H](C)C3)nc2)c1` (single isomer, unassigned) [Example 7.1], the IC50 was under 0.1 µM.

Regarding `COCC1CCCCN1c1ncc(-c2cc(C)cc(Nc3nccc(C(F)(F)F)n3)c2)cn1` (stereo not shown) [Example 2.49, N-(3-{2-[2-(methoxymethyl)piperidin-1-yl]pyrimidin-5-yl}-5-methylphenyl)-4-(trifluoromethyl)pyrimidin-2-amine], the IC50 was 0.1 to 1 µM.

Take `CCOC(=O)CCc1ccc(-c2cc(C)cc(Nc3nccc(C)n3)c2)nn1` [Example 3.40, ethyl 3-(6-{3-methyl-5-[(4-methylpyrimidin-2-yl)amino]phenyl}pyridazin-3-yl)propanoate]: the IC50 was 0.1 to 1 µM.

`Cc1cc(Nc2nccc(C(F)(F)F)n2)cc(-c2ccc(OC(C)(C)C(=O)O)nn2)c1` [Example 3.34, 2-methyl-2-{[6-(3-methyl-5-{[4-(trifluoromethyl)pyrimidin-2-yl]amino}phenyl)pyridazin-3-yl]oxy}propanoic acid]: the IC50 is under 0.1 µM.

For `Cc1cc(Nc2nccc(C3CC3)n2)cc(-c2cnc(CCC(=O)O)nc2)c1` [Example 3.57, 3-(5-{3-[(4-cyclopropylpyrimidin-2-yl)amino]-5-methylphenyl}pyrimidin-2-yl)propanoic acid], the IC50 is under 0.1 µM.

`Cc1cc(Nc2nccc(C(F)(F)F)n2)cc(-c2cnc(N3CCC(C)(O)CC3)nc2)c1` [Example 2.29, 4-methyl-1-[5-(3-methyl-5-{[4-(trifluoromethyl)pyrimidin-2-yl]amino}phenyl)pyrimidin-2-yl]piperidin-4-ol]: the IC50 was 0.1 to 1 µM.

As to `Cc1cc(Nc2nccc(C(F)(F)F)n2)cc(-c2cnc(NCC(N)=O)nc2)c1` [Example 2.37, N~2~-[5-(3-methyl-5-{[4-(trifluoromethyl)pyrimidin-2-yl]amino}phenyl)pyrimidin-2-yl]glycinamide], the IC50 was under 0.1 µM.

`Cc1cc(Nc2nccc(C(F)(F)F)n2)cc(-c2cncnc2)c1` [Example 1.1, N-(3-methyl-5-pyrimidin-5-ylphenyl)-4-(trifluoromethyl)pyrimidin-2-amine]: the IC50 was under 0.1 µM.

Still in this test, the particulars now being: GST-hSYK 5 pM, ATP 25 μM, values in text, read-out: IC50.
`Cc1cc(Nc2nccc(C(F)(F)F)n2)cc(-c2cnc(NC(C)(CO)CO)nc2)c1` [Example 2.1, 2-methyl-2-{[5-(3-methyl-5-{[4-(trifluoromethyl)pyrimidin-2-yl]amino}phenyl)pyrimidin-2-yl]amino}propane-1,3-diol]: the IC50 was 0.0172 µM.

With `Cc1cc(Nc2nccc(C(F)F)n2)cc(-c2cnc([C@H](C)[C@H]3CC[C@H](C(=O)O)[C@H](C)C3)nc2)c1` (single isomer, unassigned) [Example 7.5], the IC50 stood at 0.0008 µM.

Take `Cc1cc(Nc2nccc(C3CC3)n2)cc(-c2cnc(CCC(=O)O)nc2)c1` [Example 3.1, 3-(5-{3-[(4-cyclopropylpyrimidin-2-yl)amino]-5-methylphenyl}pyrimidin-2-yl)propanoic acid]: the IC50 worked out at 0.0516 µM.

For the compound `Cc1cc(Nc2nccc(C(F)(F)F)n2)cc(-c2cncnc2)c1` [Example 1.1, N-(3-methyl-5-pyrimidin-5-ylphenyl)-4-(trifluoromethyl)pyrimidin-2-amine], the IC50 worked out at 0.0662 µM.
